{"source": "patent US6355799B1", "about": "“Substituted benzene compounds, process for their preparation, and herbicidal and defoliant compositions containing them” (ISK Americas Incorporated, priority 1997, dated 2002)", "type_in_all_cases": "in vivo", "key": {"[1]": {"tested_on": "redroot pigweed (Amaranthus retroflexus, AMARE)", "assay": "Pre-emerge test, greenhouse herbicide activity screening", "settings": "rating scale 0-100, 14 days after application", "outline": "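Compounds in acetone were track-sprayed at 15-1000 g ai/ha (187 l/ha) on sandy loam pots: pre-emerge one day after seeding, post-emerge at 2-3 leaf stage with 0.25% v/v non-ionic surfactant. Phytotoxicity was rated 14 days later on a 0 (no damage) to 100 (complete death) scale.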"}, "[2]": {"tested_on": "barnyardgrass (Echinochloa crus-galli, ECHCG)", "assay": "Pre-emerge test, greenhouse herbicide activity screening", "settings": "rating scale 0-100, 14 days after application", "outline": "(§1)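 Compounds in acetone were track-sprayed at 187 l/ha, 15–1000 g ai/ha, onto sandy loam pots. Pre-emerge seeds were sown one day before spraying, with surface watering afterwards. Post-emerge plants were at the 2–3 leaf stage and sprayed with 0.25% v/v non-ionic surfactant. Injury was rated 0–100 at 14 days.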"}, "[3]": {"tested_on": "green foxtail (Setaria viridis, SETVI)", "assay": "Pre-emerge test, greenhouse herbicide activity screening", "settings": "rating scale 0-100, 14 days after application", "outline": "as §1"}, "[4]": {"tested_on": "ivyleaf morningglory (Ipomoea hederacea, IPOHE)", "assay": "Pre-emerge test, greenhouse herbicide activity screening", "settings": "rating scale 0-100, 14 days after application", "outline": "as §1"}, "[5]": {"tested_on": "johnsongrass (Sorghum halepense, SORHA)", "assay": "Pre-emerge test, greenhouse herbicide activity screening", "settings": "rating scale 0-100, 14 days after application", "outline": "as §1"}, "[6]": {"tested_on": "lambsquarters (Chenopodium album, CHEAL)", "assay": "Pre-emerge test, greenhouse herbicide activity screening", "settings": "rating scale 0-100, 14 days after application", "outline": "as §1"}, "[7]": {"tested_on": "large crabgrass (Digitaria sanguinalis, DIGSA)", "assay": "Pre-emerge test, greenhouse herbicide activity screening", "settings": "rating scale 0-100, 14 days after application", "outline": "as §1"}, "[8]": {"tested_on": "sicklepod (Cassia obtusifolia, CASOB)", "assay": "Pre-emerge test, greenhouse herbicide activity screening", "settings": "rating scale 0-100, 14 days after application", "outline": "as §1"}, "[9]": {"tested_on": "velvetleaf (Abutilon theophrasti, ABUTH)", "assay": "Pre-emerge test, greenhouse herbicide activity screening", "settings": "rating scale 0-100, 14 days after application", "outline": "as §1"}, "[10]": {"tested_on": "field corn (Zea mays L., var. Dekalb 535, CORN)", "assay": "Pre-emerge test, crop safety", "settings": "rating scale 0-100, 14 days after application", "outline": "as §1"}, "[11]": {"tested_on": "upland rice (Oryza sp., var. Tebonnet, RICE)", "assay": "Pre-emerge test, crop safety", "settings": "rating scale 0-100, 14 days after application", "outline": "as §1"}, "[12]": {"tested_on": "barnyardgrass (Echinochloa crus-galli, ECHCG)", "assay": "Post-emerge test, greenhouse herbicide activity screening", "settings": "rating scale 0-100 (0 no damage, 100 complete death), 14 days after application", "outline": "(§2)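 Rating: 0–100 visual injury, 14 DAA. Application: acetone, 187 l/ha, 15–1000 g ai/ha, flat-fan track sprayer with nozzle 40–45 cm above soil or canopy. Post-emerge runs used 0.25% v/v surfactant on 2–3 leaf plants.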"}, "[13]": {"tested_on": "green foxtail (Setaria viridis, SETVI)", "assay": "Post-emerge test, greenhouse herbicide activity screening", "settings": "rating scale 0-100 (0 no damage, 100 complete death), 14 days after application", "outline": "as §2"}, "[14]": {"tested_on": "ivyleaf morningglory (Ipomoea hederacea, IPOHE)", "assay": "Post-emerge test, greenhouse herbicide activity screening", "settings": "rating scale 0-100 (0 no damage, 100 complete death), 14 days after application", "outline": "as §2"}, "[15]": {"tested_on": "johnsongrass (Sorghum halepense, SORHA)", "assay": "Post-emerge test, greenhouse herbicide activity screening", "settings": "rating scale 0-100 (0 no damage, 100 complete death), 14 days after application", "outline": "as §2"}, "[16]": {"tested_on": "lambsquarters (Chenopodium album, CHEAL)", "assay": "Post-emerge test, greenhouse herbicide activity screening", "settings": "rating scale 0-100 (0 no damage, 100 complete death), 14 days after application", "outline": "as §2"}, "[17]": {"tested_on": "large crabgrass (Digitaria sanguinalis, DIGSA)", "assay": "Post-emerge test, greenhouse herbicide activity screening", "settings": "rating scale 0-100 (0 no damage, 100 complete death), 14 days after application", "outline": "as §2"}, "[18]": {"tested_on": "redroot pigweed (Amaranthus retroflexus, AMARE)", "assay": "Post-emerge test, greenhouse herbicide activity screening", "settings": "rating scale 0-100 (0 no damage, 100 complete death), 14 days after application", "outline": "as §2"}, "[19]": {"tested_on": "sicklepod (Cassia obtusifolia, CASOB)", "assay": "Post-emerge test, greenhouse herbicide activity screening", "settings": "rating scale 0-100 (0 no damage, 100 complete death), 14 days after application", "outline": "as §2"}, "[20]": {"tested_on": "velvetleaf (Abutilon theophrasti, ABUTH)", "assay": "Post-emerge test, greenhouse herbicide activity screening", "settings": "rating scale 0-100 (0 no damage, 100 complete death), 14 days after application", "outline": "as §2"}, "[21]": {"tested_on": "field corn (Zea mays L., var. Dekalb 535, CORN)", "assay": "Post-emerge test, crop safety", "settings": "rating scale 0-100 (0 no damage, 100 complete death), 14 days after application", "outline": "as §1"}, "[22]": {"tested_on": "upland rice (Oryza sp., var. Tebonnet, RICE)", "assay": "Post-emerge test, crop safety", "settings": "rating scale 0-100 (0 no damage, 100 complete death), 14 days after application", "outline": "as §1"}}, "data": [{"smiles": "COc1c(Cl)cc(F)c(-n2c(=O)cc(C(F)(F)F)n(C)c2=O)c1CC(Cl)C(=O)OCCC(C)C", "note": "(single isomer, unassigned) [14-16]", "values": [{"measurement": "Pre-emerge herbicidal activity, phytotoxicity rating AMARE", "setting": "[1]; 63 g ai/ha", "result": 100}, {"measurement": "Pre-emerge herbicidal activity, phytotoxicity rating AMARE", "setting": "[1]; 250 g ai/ha", "result": 100}, {"measurement": "Pre-emerge herbicidal activity, phytotoxicity rating ECHCG", "setting": "[2]; 63 g ai/ha", "result": 0}, {"measurement": "Pre-emerge herbicidal activity, phytotoxicity rating ECHCG", "setting": "[2]; 250 g ai/ha", "result": 0}, {"measurement": "Pre-emerge herbicidal activity, phytotoxicity rating SETVI", "setting": "[3]; 63 g ai/ha", "result": 0}, {"measurement": "Pre-emerge herbicidal activity, phytotoxicity rating SETVI", "setting": "[3]; 250 g ai/ha", "result": 0}, {"measurement": "Pre-emerge herbicidal activity, phytotoxicity rating IPOHE", "setting": "[4]; 63 g ai/ha", "result": 0}, {"measurement": "Pre-emerge herbicidal activity, phytotoxicity rating IPOHE", "setting": "[4]; 250 g ai/ha", "result": 0}, {"measurement": "Pre-emerge herbicidal activity, phytotoxicity rating SORHA", "setting": "[5]; 63 g ai/ha", "result": 0}, {"measurement": "Pre-emerge herbicidal activity, phytotoxicity rating SORHA", "setting": "[5]; 250 g ai/ha", "result": 0}, {"measurement": "Pre-emerge herbicidal activity, phytotoxicity rating CHEAL", "setting": "[6]; 63 g ai/ha", "result": 100}, {"measurement": "Pre-emerge herbicidal activity, phytotoxicity rating CHEAL", "setting": "[6]; 250 g ai/ha", "result": 100}, {"measurement": "Pre-emerge herbicidal activity, phytotoxicity rating DIGSA", "setting": "[7]; 63 g ai/ha", "result": 50}, {"measurement": "Pre-emerge herbicidal activity, phytotoxicity rating DIGSA", "setting": "[7]; 250 g ai/ha", "result": 100}, {"measurement": "Pre-emerge herbicidal activity, phytotoxicity rating CASOB", "setting": "[8]; 63 g ai/ha", "result": 0}, {"measurement": "Pre-emerge herbicidal activity, phytotoxicity rating CASOB", "setting": "[8]; 250 g ai/ha", "result": 0}, {"measurement": "Pre-emerge herbicidal activity, phytotoxicity rating ABUTH", "setting": "[9]; 63 g ai/ha", "result": 0}, {"measurement": "Pre-emerge herbicidal activity, phytotoxicity rating ABUTH", "setting": "[9]; 250 g ai/ha", "result": 90}, {"measurement": "Pre-emerge phytotoxicity rating, crop damage CORN", "setting": "[10]; 63 g ai/ha", "result": 0}, {"measurement": "Pre-emerge phytotoxicity rating, crop damage CORN", "setting": "[10]; 250 g ai/ha", "result": 0}, {"measurement": "Pre-emerge phytotoxicity rating, crop damage RICE", "setting": "[11]; 63 g ai/ha", "result": 0}, {"measurement": "Pre-emerge phytotoxicity rating, crop damage RICE", "setting": "[11]; 250 g ai/ha", "result": 0}, {"measurement": "Post-emerge Herbicidal Activity, phytotoxicity rating ECHCG", "setting": "[12]; Rate 63 g ai/ha", "result": 95}, {"measurement": "Post-emerge Herbicidal Activity, phytotoxicity rating ECHCG", "setting": "[12]; Rate 250 g ai/ha", "result": 100}, {"measurement": "Post-emerge Herbicidal Activity, phytotoxicity rating SETVI", "setting": "[13]; Rate 63 g ai/ha", "result": 0}, {"measurement": "Post-emerge Herbicidal Activity, phytotoxicity rating SETVI", "setting": "[13]; Rate 250 g ai/ha", "result": 30}, {"measurement": "Post-emerge Herbicidal Activity, phytotoxicity rating IPOHE", "setting": "[14]; Rate 63 g ai/ha", "result": 40}, {"measurement": "Post-emerge Herbicidal Activity, phytotoxicity rating IPOHE", "setting": "[14]; Rate 250 g ai/ha", "result": 50}, {"measurement": "Post-emerge Herbicidal Activity, phytotoxicity rating SORHA", "setting": "[15]; Rate 63 g ai/ha", "result": 0}, {"measurement": "Post-emerge Herbicidal Activity, phytotoxicity rating SORHA", "setting": "[15]; Rate 250 g ai/ha", "result": 30}, {"measurement": "Post-emerge Herbicidal Activity, phytotoxicity rating CHEAL", "setting": "[16]; Rate 63 g ai/ha", "result": 95}, {"measurement": "Post-emerge Herbicidal Activity, phytotoxicity rating CHEAL", "setting": "[16]; Rate 250 g ai/ha", "result": 100}, {"measurement": "Post-emerge Herbicidal Activity, phytotoxicity rating DIGSA", "setting": "[17]; Rate 63 g ai/ha", "result": 90}, {"measurement": "Post-emerge Herbicidal Activity, phytotoxicity rating DIGSA", "setting": "[17]; Rate 250 g ai/ha", "result": 100}, {"measurement": "Post-emerge Herbicidal Activity, phytotoxicity rating AMARE", "setting": "[18]; Rate 63 g ai/ha", "result": 60}, {"measurement": "Post-emerge Herbicidal Activity, phytotoxicity rating AMARE", "setting": "[18]; Rate 250 g ai/ha", "result": 100}, {"measurement": "Post-emerge Herbicidal Activity, phytotoxicity rating CASOB", "setting": "[19]; Rate 63 g ai/ha", "result": 20}, {"measurement": "Post-emerge Herbicidal Activity, phytotoxicity rating CASOB", "setting": "[19]; Rate 250 g ai/ha", "result": 40}, {"measurement": "Post-emerge Herbicidal Activity, phytotoxicity rating ABUTH", "setting": "[20]; Rate 63 g ai/ha", "result": 60}, {"measurement": "Post-emerge Herbicidal Activity, phytotoxicity rating ABUTH", "setting": "[20]; Rate 250 g ai/ha", "result": 100}, {"measurement": "Post-emerge phytotoxicity rating CORN (crop damage)", "setting": "[21]; Rate 63 g ai/ha", "result": 0}, {"measurement": "Post-emerge phytotoxicity rating CORN (crop damage)", "setting": "[21]; Rate 250 g ai/ha", "result": 70}, {"measurement": "Post-emerge phytotoxicity rating RICE (crop damage)", "setting": "[22]; Rate 63 g ai/ha", "result": 0}, {"measurement": "Post-emerge phytotoxicity rating RICE (crop damage)", "setting": "[22]; Rate 250 g ai/ha", "result": 10}]}]}
